Source: patent US10519099B2, “Cystobactamides” (priority 2014, dated 2019)

Test system: CHO-K1 (Chinese hamster ovary cell line)
Assay: Cytotoxicity (MTT), CHO-K1 cell line
Format: cell-based
Conditions: Cricetulus griseus, CHO-K1, 120 h, 5 d incubation
Method: CHO-K1 cells were obtained from the DSMZ and were cultured under conditions recommended by the depositor. Cells were seeded at 6×10^3 cells/well of 96-well plates in 180 μl complete medium and treated with compounds in serial dilution after 2 h of equilibration. Each sample was tested in duplicate as well as the internal DMSO control. After 5 d incubation, 20 μl of 5 mg/ml MTT (thiazolyl blue tetrazolium bromide) in PBS was added per well and it was further incubated for 2 h at 37° C. The medium was then discarded and cells were washed with 100 μl PBS before adding 100 μl 2-propanol/10 N HCl (250:1) in order to dissolve formazan granules. The absorbance at 570 nm was measured using a microplate reader (Tecan Infinite M200Pro), and cell viability was expressed as percentage relative to the respective […] control.

## COC(C(N)=O)C(NC(=O)c1ccc(NC(=O)c2ccc([N+](=O)[O-])cc2)cc1)C(=O)Nc1ccc(C(=O)Nc2ccc(C(=O)Nc3ccc(C(=O)O)cc3OC(C)C)c(O)c2OC(C)C)cc1 (stereo not shown) [Cys 919-2]
  IC50: ~50 µM
